Assay results reported in patent US7981903B2, “2-[2-{phenylamino}-1H-pyrrolo[2,3-D]pyrimidin-4-yl)amino] benzamide derivatives as IGF-1R inhibitors for the treatment of cancer” (GlaxoSmithKline LLC, priority 2007, dated 2011).
pIC50: −log10 of the molar value.

target: ALK (Homo sapiens, UniProt Q9UM73); test: ALK enzyme assay (HTRF); format: biochemical; details: 0.25 nM ALK, 15.0 μM ATP, values given as pIC50 category
Procedure, shortened: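 Isolated ALK phosphorylates a biotinylated tyrosine peptide, 120 min at 20° C; anti-phosphotyrosine Eu-cryptate/streptavidin-XL665 HTRF read after 60 min with EDTA-containing detection mix.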

Sequence of ALK (Q9UM73 19-1620): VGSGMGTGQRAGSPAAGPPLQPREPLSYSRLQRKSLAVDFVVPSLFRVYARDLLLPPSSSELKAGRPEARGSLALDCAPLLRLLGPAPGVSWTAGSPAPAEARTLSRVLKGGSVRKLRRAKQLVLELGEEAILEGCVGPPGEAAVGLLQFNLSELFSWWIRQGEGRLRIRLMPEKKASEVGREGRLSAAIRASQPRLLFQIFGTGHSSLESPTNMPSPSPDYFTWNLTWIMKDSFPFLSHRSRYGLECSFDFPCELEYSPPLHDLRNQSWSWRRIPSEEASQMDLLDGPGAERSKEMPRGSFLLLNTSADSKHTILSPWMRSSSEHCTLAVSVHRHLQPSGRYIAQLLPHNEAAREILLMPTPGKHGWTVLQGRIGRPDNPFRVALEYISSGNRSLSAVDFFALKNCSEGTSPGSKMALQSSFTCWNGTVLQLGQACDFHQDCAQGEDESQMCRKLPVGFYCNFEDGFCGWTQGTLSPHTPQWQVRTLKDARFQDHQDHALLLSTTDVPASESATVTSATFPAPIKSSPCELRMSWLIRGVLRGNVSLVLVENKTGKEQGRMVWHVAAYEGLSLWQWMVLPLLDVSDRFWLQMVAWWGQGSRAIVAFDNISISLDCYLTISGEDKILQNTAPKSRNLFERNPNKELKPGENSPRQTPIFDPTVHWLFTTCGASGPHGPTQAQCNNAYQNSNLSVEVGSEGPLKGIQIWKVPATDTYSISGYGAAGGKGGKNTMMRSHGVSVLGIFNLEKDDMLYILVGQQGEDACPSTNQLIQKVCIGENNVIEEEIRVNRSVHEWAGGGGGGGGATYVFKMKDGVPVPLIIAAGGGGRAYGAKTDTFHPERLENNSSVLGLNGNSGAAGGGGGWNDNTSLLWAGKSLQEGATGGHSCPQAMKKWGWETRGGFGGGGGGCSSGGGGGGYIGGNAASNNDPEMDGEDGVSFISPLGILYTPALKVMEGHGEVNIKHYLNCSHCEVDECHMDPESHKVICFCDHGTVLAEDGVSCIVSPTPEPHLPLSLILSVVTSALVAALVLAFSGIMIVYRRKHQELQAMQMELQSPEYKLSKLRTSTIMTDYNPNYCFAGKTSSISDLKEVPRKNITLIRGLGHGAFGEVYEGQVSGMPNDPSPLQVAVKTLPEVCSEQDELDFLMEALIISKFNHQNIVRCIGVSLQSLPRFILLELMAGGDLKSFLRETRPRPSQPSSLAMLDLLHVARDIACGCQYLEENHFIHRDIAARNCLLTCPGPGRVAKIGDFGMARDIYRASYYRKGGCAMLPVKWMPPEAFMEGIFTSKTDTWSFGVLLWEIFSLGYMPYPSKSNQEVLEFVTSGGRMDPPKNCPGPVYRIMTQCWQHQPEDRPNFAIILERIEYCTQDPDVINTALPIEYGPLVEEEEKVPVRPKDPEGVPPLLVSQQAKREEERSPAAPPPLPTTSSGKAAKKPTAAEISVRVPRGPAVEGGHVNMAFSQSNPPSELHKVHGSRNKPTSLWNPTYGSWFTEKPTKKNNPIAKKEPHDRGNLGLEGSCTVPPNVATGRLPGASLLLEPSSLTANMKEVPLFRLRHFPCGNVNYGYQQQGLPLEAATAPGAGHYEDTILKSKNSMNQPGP

pIC50, 8.40 to 8.90:
COc1cc(N2CCOCC2)ccc1Nc1nc(Nc2cc(F)c(F)cc2C(N)=O)c2cc[nH]c2n1 [Example 104, 4,5-difluoro-2-[(2-{[2-(methyloxy)-4-(4-morpholinyl)phenyl]amino}-1H-pyrrolo[2,3-d]pyrimidin-4-yl)amino]benzamide]
COc1cc(N2CCC(N3CC[C@H](F)C3)CC2)ccc1Nc1nc(Nc2cc(F)ccc2C(N)=O)c2cc[nH]c2n1 [Example 75, 4-fluoro-2-[(2-{[4-{4-[(3S)-3-fluoro-1-pyrrolidinyl]-1-piperidinyl}-2-(methyloxy)phenyl]amino}-1H-pyrrolo[2,3-d]pyrimidin-4-yl)amino]benzamide]
COc1cc(N2CCOC[C@@H]2C)ccc1Nc1nc(Nc2cccc(F)c2C(N)=O)c2cc[nH]c2n1 [Example 49, 2-fluoro-6-[(2-{[4-[(3S)-3-methyl-4-morpholinyl]-2-(methyloxy)phenyl]amino}-1H-pyrrolo[2,3-d]pyrimidin-4-yl)amino]benzamide]
COc1cc(N2CCN(C(C)C)CC2)c(OC)cc1Nc1nc(Nc2cc(F)ccc2C(N)=O)c2cc[nH]c2n1 [Example 82, 4-fluoro-2-[(2-{[4-[4-(1-methylethyl)-1-piperazinyl]-2,5-bis(methyloxy)phenyl]amino}-1H-pyrrolo[2,3-d]pyrimidin-4-yl)amino]benzamide]
COc1cc(N2CCN(C(C)C)CC2)ccc1Nc1nc(Nc2cc(F)cc(OC)c2C(N)=O)c2cc[nH]c2n1 [Example 88]
COc1cc(N2CCOC[C@@H]2C)ccc1Nc1nc(Nc2ccc(F)cc2C(N)=O)c2cc[nH]c2n1 [Example 61, 5-fluoro-2-[(2-{[4-[(3S)-3-methyl-4-morpholinyl]-2-(methyloxy)phenyl]amino}-1H-pyrrolo[2,3-d]pyrimidin-4-yl)amino]benzamide]
COc1ccc(N2CCN(C)CC2)cc1Nc1nc(Nc2ccccc2C(N)=O)c2cc[nH]c2n1 [Example 9, 2-[(2-{[2-(methyloxy)-5-(4-methyl-1-piperazinyl)phenyl]amino}-1H-pyrrolo[2,3-d]pyrimidin-4-yl)amino]benzamide]
COc1cc(N2CCC(N3CC[C@H](F)C3)CC2)ccc1Nc1nc(Nc2cccc(F)c2C(N)=O)c2cc[nH]c2n1 [Example 43, 2-fluoro-6-[(2-{[4-{4-[(3S)-3-fluoro-1-pyrrolidinyl]-1-piperidinyl}-2-(methyloxy)phenyl]amino}-1H-pyrrolo[2,3-d]pyrimidin-4-yl)amino]benzamide]
COc1cc(N2CCOC[C@@H]2C)ccc1Nc1nc(Nc2cc(F)c(F)cc2C(N)=O)c2cc[nH]c2n1 [Example 105, 4,5-difluoro-2-[(2-{[4-[(3S)-3-methyl-4-morpholinyl]-2-(methyloxy)phenyl]amino}-1H-pyrrolo[2,3-d]pyrimidin-4-yl)amino]benzamide]
COc1cc(N2CCC(N3CC[C@@H](F)C3)CC2)ccc1Nc1nc(Nc2cc(F)ccc2C(N)=O)c2cc[nH]c2n1 [Example 76, 4-fluoro-2-[(2-{[4-{4-[(3R)-3-fluoro-1-pyrrolidinyl]-1-piperidinyl}-2-(methyloxy)phenyl]amino}-1H-pyrrolo[2,3-d]pyrimidin-4-yl)amino]benzamide]
COc1cc(N2CCC(N3CCCC(F)(F)C3)CC2)ccc1Nc1nc(Nc2cc(F)ccc2C(N)=O)c2cc[nH]c2n1 [Example 77, 2-[(2-{[4-(3,3-difluoro-1,4′-bipiperidin-1′-yl)-2-(methyloxy)phenyl]amino}-1H-pyrrolo[2,3-d]pyrimidin-4-yl)amino]-4-fluorobenzamide]
COc1ccc(N2CCN(C(C)C)CC2)cc1Nc1nc(Nc2ccccc2C(N)=O)c2cc[nH]c2n1 [Example 10, 2-[(2-{[5-[4-(1-methylethyl)-1-piperazinyl]-2-(methyloxy)phenyl]amino}-1H-pyrrolo[2,3-d]pyrimidin-4-yl)amino]benzamide]
COc1cc(N2CCC[C@H](O)C2)ccc1Nc1nc(Nc2cc(F)ccc2C(N)=O)c2cc[nH]c2n1 [Example 74, 4-fluoro-2-[(2-{[4-[(3S)-3-hydroxy-1-piperidinyl]-2-(methyloxy)phenyl]amino}-1H-pyrrolo[2,3-d]pyrimidin-4-yl)amino]benzamide]
COc1cc(N2CCN(C(C)=O)CC2)ccc1Nc1nc(Nc2cc(F)c(F)cc2C(N)=O)c2cc[nH]c2n1 [Example 103, 2-[(2-{[4-(4-acetyl-1-piperazinyl)-2-(methyloxy)phenyl]amino}-1H-pyrrolo[2,3-d]pyrimidin-4-yl)amino]-4,5-difluorobenzamide]
CN(C)CC(=O)Nc1ccc(Cl)c(Nc2nc(Nc3ccccc3C(N)=O)c3cc[nH]c3n2)c1 [Example 18, 2-{[2-({2-chloro-5-[(N,N-dimethylglycyl)amino]phenyl}amino)-1H-pyrrolo[2,3-d]pyrimidin-4-yl]amino}benzamide]

pIC50, 9.00 to 9.60:
COc1cc(N2CCC(N3CCCCC3)CC2)ccc1Nc1nc(Nc2cc(F)c(F)cc2C(N)=O)c2cc[nH]c2n1 [Example 100, 2-[(2-{[4-(1,4′-bipiperidin-1′-yl)-2-(methyloxy)phenyl]amino}-1H-pyrrolo[2,3-d]pyrimidin-4-yl)amino]-4,5-difluorobenzamide]
COc1cc(N2CCC(O)CC2)ccc1Nc1nc(Nc2cc(F)c(F)cc2C(N)=O)c2cc[nH]c2n1 [Example 99]
COc1cc(N2CCC(N3CCOCC3)CC2)ccc1Nc1nc(Nc2ccc(F)cc2C(N)=O)c2cc[nH]c2n1 [Example 59, 5-fluoro-2-{[2-({2-(methyloxy)-4-[4-(4-morpholinyl)-1-piperidinyl]phenyl}amino)-1H-pyrrolo[2,3-d]pyrimidin-4-yl]amino}benzamide]
COc1cc(N2CCC(N3CCOCC3)CC2)ccc1Nc1nc(Nc2cc(F)c(F)cc2C(N)=O)c2cc[nH]c2n1 [Example 101, 4,5-difluoro-2-{[2-({2-(methyloxy)-4-[4-(4-morpholinyl)-1-piperidinyl]phenyl}amino)-1H-pyrrolo[2,3-d]pyrimidin-4-yl]amino}benzamide]
COc1cc(C2=CCN(C(C)C)CC2)ccc1Nc1nc(Nc2cc(F)ccc2C(N)=O)c2cc[nH]c2n1 [Example 72, 4-fluoro-2-[(2-{[4-[1-(1-methylethyl)-1,2,3,6-tetrahydro-4-pyridinyl]-2-(methyloxy)phenyl]amino}-1H-pyrrolo[2,3-d]pyrimidin-4-yl)amino]benzamide]
COc1cc(N2CCN(C(C)C)CC2)ccc1Nc1nc(Nc2ccc(Br)cc2C(N)=O)c2cc[nH]c2n1 [Example 68, 5-bromo-2-[(2-{[4-[4-(1-methylethyl)-1-piperazinyl]-2-(methyloxy)phenyl]amino}-1H-pyrrolo[2,3-d]pyrimidin-4-yl)amino]benzamide]
CCCN1CCC=C(c2ccc(Nc3nc(Nc4cc(F)ccc4C(=O)N[C@@H](C)CC)c4cc[nH]c4n3)c(OC)c2)C1 [Example 87, 4-fluoro-2-[(2-{[2-(methyloxy)-4-(1-propyl-1,2,5,6-tetrahydro-3-pyridinyl)phenyl]amino}-1H-pyrrolo[2,3-d]pyrimidin-4-yl)amino]-N-[(1S)-1-methylpropyl]benzamide]
